Results on twelve molecules are retold here after PubChem BioAssay AID651581 (Sanford-Burnham Center for Chemical Genomics, 2012).

The IC50 is the concentration at which inhibition is half-maximal.

Each structure is given as a SMILES string. Active and inactive are the calls of the source. No rule for the calls is given here.

In assay [1] the target is Endothelial PAS domain-containing protein 1 (Homo sapiens) (UniProt Q99814). The assay is described as follows: potency against HIF reporters across cell lines – luminescence, panel, selectivity assay for HIF-2a inhibitor project, dose response (AID 651581). The note with it: human cell HIF reporter.
Assay [2] addresses Hypoxia-inducible factor 1-alpha (Homo sapiens) (UniProt Q16665). The assay is described as above. The note with it: human cell HIF reporter, HIF-1a.

Chain of Hypoxia-inducible factor 1-alpha (Homo sapiens) (Q16665 whole entry, looked up): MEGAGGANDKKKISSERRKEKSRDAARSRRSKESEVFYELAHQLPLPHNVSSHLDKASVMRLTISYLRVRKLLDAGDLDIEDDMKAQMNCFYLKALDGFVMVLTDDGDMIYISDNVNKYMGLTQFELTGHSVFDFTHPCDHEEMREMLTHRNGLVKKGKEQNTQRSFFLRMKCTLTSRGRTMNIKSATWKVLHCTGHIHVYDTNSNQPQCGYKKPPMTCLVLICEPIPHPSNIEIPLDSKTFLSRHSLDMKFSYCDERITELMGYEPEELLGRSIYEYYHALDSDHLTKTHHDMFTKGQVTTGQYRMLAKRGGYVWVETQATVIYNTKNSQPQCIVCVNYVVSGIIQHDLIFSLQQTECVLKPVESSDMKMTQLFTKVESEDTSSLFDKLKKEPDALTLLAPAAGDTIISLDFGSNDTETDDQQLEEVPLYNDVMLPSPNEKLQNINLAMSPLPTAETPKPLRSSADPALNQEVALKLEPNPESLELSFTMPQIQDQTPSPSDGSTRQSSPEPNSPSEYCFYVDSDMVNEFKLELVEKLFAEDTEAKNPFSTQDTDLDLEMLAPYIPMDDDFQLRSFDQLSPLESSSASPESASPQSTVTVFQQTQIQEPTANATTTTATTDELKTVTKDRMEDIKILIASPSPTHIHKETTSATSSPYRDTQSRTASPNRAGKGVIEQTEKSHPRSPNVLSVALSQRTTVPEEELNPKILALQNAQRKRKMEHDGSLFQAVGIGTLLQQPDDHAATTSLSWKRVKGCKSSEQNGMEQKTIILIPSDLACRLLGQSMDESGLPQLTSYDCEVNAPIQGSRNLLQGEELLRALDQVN

As to `CCOC(=O)Cc1csc(NC(=S)NC(=O)c2ccc(F)cc2)n1`, the IC50 was > 99 µM in assay [1] (HIF-2a PANC, run 1); 13.5 µM in assay [1] (HIF-2a PANC, run 2); 1.96 µM in assay [1] (HIF-2a, mean of runs); 1.92 µM in assay [1] (HIF-2a, run 1); 2.01 µM in assay [1] (HIF-2a, run 2); 12.9 µM in assay [2] (mean of runs). Further, the concentration for half-maximal inhibition (IC50) in assay [2] (run 1) was found to be 13.5 µM; in assay [2] (run 2), 12.4 µM.
As to `CC(C)(C)c1ccc(-c2noc(CCC(=O)NCC3CCCO3)n2)cc1` (stereo unspecified), the IC50 in assay [1] (HIF-2a PANC, mean of runs) was < 3 µM; in assay [1] (HIF-2a PANC, run 1) it was < 3 µM; in assay [1] (HIF-2a PANC, run 2), < 10 µM; in assay [1] (HIF-2a, mean of runs), < 10 µM; in assay [1] (HIF-2a, run 1) it was < 10 µM; in assay [1] (HIF-2a, run 2) it was < 10 µM. Moreover, the IC50 in assay [2] (run 1) and in assay [2] (run 2) was > 99 µM each time.
In the case of `CC(C)COc1ccc(C(=S)N2CCCC2)cc1`, the IC50 in assay [1] (HIF-2a PANC, mean of runs) was 14.5 µM; in assay [1] (HIF-2a PANC, run 1), 13.6 µM; in assay [1] (HIF-2a PANC, run 2), 15.5 µM; in assay [1] (HIF-2a, mean of runs) it was 4.91 µM; in assay [1] (HIF-2a, run 1), 4.41 µM; in assay [1] (HIF-2a, run 2), 5.42 µM. In addition, the IC50 in assay [2] (run 1) and in assay [2] (run 2) was > 99 µM throughout.
As for `CCOC(=O)C1CCCN(C(=O)COc2ccc(C(C)(C)C)cc2)CC1` (stereo unspecified), the half-maximal inhibitory concentration (IC50) in assay [1] (HIF-2a PANC, mean of runs) is 13.5 µM; in assay [1] (HIF-2a PANC, run 1) it was 16.5 µM; in assay [1] (HIF-2a PANC, run 2) it was 10.4 µM; in assay [1] (HIF-2a, mean of runs) it was 8.24 µM; in assay [1] (HIF-2a, run 1) it was 8.72 µM; in assay [1] (HIF-2a, run 2) it was 7.77 µM. Besides, the half-maximal inhibitory concentration (IC50) in assay [2] (run 1) and in assay [2] (run 2) was > 99 µM throughout.
As to `O=C(O)c1cccc(COc2ccccc2Cl)c1`, the IC50 in assay [1] (HIF-2a PANC, run 1) was 21.1 µM; in assay [1] (HIF-2a PANC, run 2) it was > 99 µM; in assay [1] (HIF-2a, mean of runs), 2.58 µM; in assay [1] (HIF-2a, run 1), 2.52 µM; in assay [1] (HIF-2a, run 2) it was 2.65 µM; in assay [2] (mean of runs) it was 21.2 µM. The half-maximal inhibitory concentration (IC50) in assay [2] (run 1) is 17.8 µM; in assay [2] (run 2), 24.6 µM.
On to `CCOC(=O)C1CCN(C(=O)CCc2c(C)nc3cc(-c4ccccc4)nn3c2C)CC1`, for which the IC50 in assay [1] (HIF-2a PANC, mean of runs) was 2.16 µM; in assay [1] (HIF-2a PANC, run 1), 1.83 µM; in assay [1] (HIF-2a PANC, run 2), 2.48 µM; in assay [1] (HIF-2a, mean of runs) it was 1.39 µM; in assay [1] (HIF-2a, run 1), 1.51 µM; in assay [1] (HIF-2a, run 2) it was 1.27 µM. Besides, the IC50 in assay [2] (mean of runs) is 9.79 µM; in assay [2] (run 1), 12.6 µM; in assay [2] (run 2) it was 6.98 µM.
Turning to `C/C(=N\NC(=O)c1n[nH]c2c1CCC2)c1cccs1`, the IC50 result in assay [1] (HIF-2a PANC, mean of runs) is “inactive”; in assay [2] (mean of runs), “inactive”. In addition, the half-maximal inhibitory concentration (IC50) was 27.1 µM in assay [1] (HIF-2a PANC, run 1); 15.3 µM in assay [1] (HIF-2a PANC, run 2); 4.55 µM in assay [1] (HIF-2a, mean of runs); 4.42 µM in assay [1] (HIF-2a, run 1); 4.68 µM in assay [1] (HIF-2a, run 2); 13.7 µM in assay [2] (run 1). In assay [2] (run 2), this molecule returned an IC50 of 11.6 µM.
In the case of `O=C(Nc1cc(S(=O)(=O)N2CCOCC2)ccc1Cl)c1cc([N+](=O)[O-])ccc1Cl`, the IC50 in assay [1] (HIF-2a PANC, run 1) was > 99 µM; in assay [1] (HIF-2a PANC, run 2), 80.5 µM; in assay [1] (HIF-2a, run 1), 15.1 µM; in assay [1] (HIF-2a, run 2), 13.9 µM; in assay [2] (run 1), 23.9 µM; in assay [2] (run 2), 17.6 µM. In addition, the IC50 entry in assay [1] (HIF-2a, mean of runs) was “inactive”; in assay [2] (mean of runs) it was “inactive”.
In the case of `COCCn1c(C)cc(C(=O)CSc2nnc3ccccn23)c1C`, in assay [1] (HIF-2a PANC, mean of runs), the IC50 result is “inactive”. Moreover, the IC50 in assay [1] (HIF-2a PANC, run 1) is 81.3 µM; in assay [1] (HIF-2a PANC, run 2) it was 31 µM; in assay [1] (HIF-2a, mean of runs) it was 7.43 µM; in assay [1] (HIF-2a, run 1) it was 7.46 µM; in assay [1] (HIF-2a, run 2), 7.41 µM; in assay [2] (mean of runs), 27.5 µM. Besides, the IC50 in assay [2] (run 1) worked out at 28.9 µM; in assay [2] (run 2), 26.2 µM.
For `CSc1ccc(/C=N/Nc2cccc(C(=O)O)c2)cc1`, the IC50 was > 99 µM (inactive) in assay [1] (HIF-2a PANC, mean of runs); > 99 µM in assay [1] (HIF-2a PANC, run 1); > 99 µM in assay [1] (HIF-2a PANC, run 2); 5.33 µM in assay [1] (HIF-2a, mean of runs); 5.25 µM in assay [1] (HIF-2a, run 1); 5.4 µM in assay [1] (HIF-2a, run 2). Moreover, the 50% inhibitory concentration (IC50) in assay [2] (run 1) and in assay [2] (run 2) was > 99 µM each time.
With `Cc1c(CCC(=O)NCCC(=O)O)c(=O)oc2c(C)c3oc4c(c3cc12)CCCC4`, the half-inhibitory concentration (IC50) in assay [1] (HIF-2a PANC, mean of runs) is 2.65 µM; in assay [1] (HIF-2a PANC, run 1), 2.34 µM; in assay [1] (HIF-2a PANC, run 2), 2.96 µM; in assay [1] (HIF-2a, mean of runs), 3.08 µM; in assay [1] (HIF-2a, run 1), 2.85 µM; in assay [1] (HIF-2a, run 2), 3.32 µM. In addition, the IC50 in assay [2] (run 1) was determined as 1.23 µM; in assay [2] (run 2), 14.5 µM. Besides, in assay [2] (mean of runs), the IC50 entry was “inactive”.
Regarding `CCOc1ccc(-c2cc(CCCC(=O)Nc3cc(OC)ccc3OC)no2)cc1`, the IC50 was 0.447 µM in assay [1] (HIF-2a PANC, mean of runs); 0.529 µM in assay [1] (HIF-2a PANC, run 1); 0.365 µM in assay [1] (HIF-2a PANC, run 2); 1.99 µM in assay [1] (HIF-2a, mean of runs); 2.32 µM in assay [1] (HIF-2a, run 1); 1.66 µM in assay [1] (HIF-2a, run 2). The figures for the concentration for half-maximal inhibition (IC50) in assay [2] (run 1) and in assay [2] (run 2) were 4.99 µM and 5.07 µM, respectively. In assay [2] (mean of runs), the IC50 result is “inactive”.
